Reference: US20120252723A1, “Regulating the Amino Acid Pool Used for the Acute-Phase Protein Synthesis” (N.V. Nutricia, priority 2009, published 2012)
“Also recorded” adds a separate entry of the source.

Experiments:
[1] = tested on: HepG2 cells; test: Fibrinogen secretion by HepG2 cells (ELISA of media); format: cell-based, human; conditions: for inhibition of IL-6 induced fibrinogen secretion: IL-1β 10 ng/ml, insulin 1 μM; for fibrinogen secretion in media in which one amino acid was omitted: named amino acid omitted, isonitrogenously compensated with the other amino acids
Description: (§1) The effects of either the amino acid concentration or the amino acid composition on the acute-phase protein response in a human hepatocellular cell line (HepG2 cell) were studied. As model components, the production of fibrinogen and albumin were studied.
(§2) Cell culture: Human hepatoma HepG2 cells (ATCC HB-8065) were maintained in DMEM supplemented with 10% heat inactivated fetal calf serum (Life Technologies) with 2 mM glutamine and streptomycin/penicillin in Costar T75 flasks at 37° C. in a humidified atmosphere of 95% air-5% CO2. For experiments HepG2 cells were incubated in RPMI-1640 media without fetal calf serum. All experiments were carried out in 6 wells plates.
(§3) Incubations: HepG2 cells were grown in 6 wells plates to confluence, washed with DMEM ([…]) and subsequently incubated during 24-h with IL-6 and the custom media (RPMI-1640; RPMI-1640 select amino kit Gibco BRL). After the incubations, the media were collected and stored at −20° C. until analysis. The cells were then washed with phosphate-buffered saline (PBS) and lysed with 0.1M NaOH. The protein content was determined using the Bio-Rad Protein assay (Dye Reagent Concentrate, Bio-Rad Laboratories, Inc., Hercules Calif., USA) using bovine albumin (Sigma Aldrich) as standard. The data are presented as μg acute-phase protein in the supernatant per milligram protein cell content.
(§4) Antibodies: Rabbit anti-human fibrinogen and horseradish peroxidase (HRP)—conjugated rabbit anti-human fibrinogen were obtained from DakoCytomation (Denmark A/S, Glostrup, Denmark), anti-human albumin, HRP-conjugated anti-human albumin were obtained from Dade Behring B.V. (Leusden, the Netherlands).
(§5) ELISAs: Albumin and fibrinogen: 96-well flat-bottom Costar EIA/RIA plates were coated overnight with primary antibody in PBS at predetermined optimal concentration. After each incubation step, the plates were washed with 0.1% Tween-20 (Merck Eurolab B.V., Roden, the Netherlands) in PBS. After washing, the plates were blocked with 5% Protifar (Nutricia B.V., Zoetermeer, the Netherlands) in PBS during 90 min. Subsequently, the samples and antigen were incubated in 0.1% Tween-20 in PBS during 90 min. Next, the plates were incubated with HRP-conjugated antibodies in 0.1% Tween-20 in PBS during 90 min. The colorimetric reaction was carried out with undiluted 1-Step Ultra TMB-ELISA (Pierce, Rockland, Ill., USA). The reaction was stopped with 2 M sulphuric acid. The absorbances of the samples were measured at λ=450 nm.

[2] = tested on: HepG2 cells; test: Albumin secretion by HepG2 cells (ELISA of media); format: cell-based, human; conditions: for albumin secretion in media in which one amino acid was omitted: named amino acid omitted, isonitrogenously compensated with the other amino acids
Description: as §1, §2, §3, §4, §5

[3] = added in combination with IL-6 10 ng/ml, n=6

Molecule | albumin secretion in media in which one amino acid was omitted [2] | fibrinogen secretion in media in which one amino acid was omitted [1] | further results
IL-1β: cytokine, used at 10 ng/ml [reference compound] | – | – | inhibition of IL-6 induced fibrinogen secretion [1, 3]: approximately 25%
C[C@@H]1C[C@H]2[C@@H]3CCC4=CC(=O)C=C[C@]4(C)[C@@]3(F)[C@@H](O)C[C@]2(C)[C@@]1(O)C(=O)CO [dexamethasone, reference compound] | – | – | enhancing effect on IL-6 induced fibrinogen secretion ([1]; added in combination with IL-6 10 ng/ml, dexamethasone 1 μM, n=6): 20%
insulin [reference compound] | – | – | inhibition of IL-6 induced fibrinogen secretion [1, 3]: 50%
IL-6: Human IL-6 obtained from Sigma Aldrich [reference compound] | – | – | albumin secretion (excretion) from HepG2 cells ([2]; incubation with IL-6 or other cytokines/hormones, 24-h, n=6): no significant effects; also recorded: no effect; fibrinogen secretion (excretion) from HepG2 cells ([1]; incubation with IL-6, range 1-10 ng/ml, 24-h, n=6): concentration-dependent relationship; also recorded: significantly induces
N[C@@H](CS)C(=O)O [cysteine] | significantly decreased; also recorded: significantly inhibited | significantly decreased; also recorded: significantly inhibited | –
N=C(N)NCCC[C@H](N)C(=O)O [Arg, arginine] | significantly decreased; also recorded: significantly inhibited | significantly decreased; also recorded: significantly inhibited | –
N[C@@H](CO)C(=O)O [Ser, serine] | significantly decreased; also recorded: significantly inhibited | significantly decreased; also recorded: significantly inhibited | –
